Measured values as given in ChEMBL document CHEMBL1155967, “Design, synthesis, and examination of neuron protective properties of alkenylated and amidated dehydro-silybin derivatives” (J Med Chem, 2009).
The source made the active and inactive calls. No cut-off for these calls is given here.

What was measured:
[1] = tested on: Radical scavenging activity; experiment: Antioxidant activity assessed as DPPH radical scavenging activity at 50 uM after 30 mins by spectrophotometry; type: functional
[2] = Antioxidant activity assessed as superoxide anion scavenging activity at 50 uM after 5 mins by spectrophotometry; type: functional
Liver [3] = experiment: Inhibition of lipid peroxidation in Sprague-Dawley rat liver homogenate assessed as malondialdehyde formation after 1 hr by TBARS assay; type: functional, tissue-based
PC-12 [4] = experiment: Neuroprotective activity against H2O2-induced injury in rat PC12 cells at 12.5 to 50 uM treated 2 hrs before H2O2 challenge measured after 4 hrs by MTT assay; type: functional, cell-based
[5] = target: T1, Xanthine dehydrogenase/oxidase (Rattus norvegicus, UniProt P22985); experiment: Inhibition of rat liver xanthine oxidase at 75 uM after 2 hrs by spectrophotometry; conditions: for inhibition (INH): 75 µM
[6] = Iron chelating activity assessed as inhibition of ferrozine-Fe2+ complex formation at 150 uM after 10 mins by spectrophotometry; type: functional
[7] = Iron chelating activity assessed as inhibition of ferrozine-Fe2+ complex formation after 10 mins by spectrophotometry; type: functional
[8] = target: T1, Xanthine dehydrogenase/oxidase; experiment: Inhibition of rat liver xanthine oxidase after 2 hrs by spectrophotometry
PC-12 [9] = experiment: Neuroprotective activity against H2O2-induced injury in rat PC12 cells assessed as increase in cell viability at 50 uM treated 2 hrs before H2O2 challenge measured after 4 hrs by MTT assay; type: functional
PC-12 [10] = experiment: Neuroprotective activity against H2O2-induced injury in rat PC12 cells treated 2 hrs before H2O2 challenge measured after 4 hrs by MTT assay; type: functional, cell-based
[11] = Ratio of quercetin EC50 to compound EC50 for iron chelating activity
Liver [12] = experiment: Ratio of silybin IC50 to compound IC50 for inhibition of lipid peroxidation in Sprague-Dawley rat liver homogenate; type: functional, tissue-based
Liver [13] = experiment: Ratio of 2,3-dehydrosilybin IC50 to compound IC50 for inhibition of lipid peroxidation in Sprague-Dawley rat liver homogenate; type: functional, tissue-based
Liver [14] = experiment: Ratio of quercetin IC50 to compound IC50 for inhibition of lipid peroxidation in Sprague-Dawley rat liver homogenate; type: functional, tissue-based
[15] = Ratio of 2,3-dehydrosilybin EC50 to compound EC50 for iron chelating activity; type: functional
[16] = tested on: Radical scavenging activity; experiment: Antioxidant activity assessed as DPPH radical scavenging activity after 30 mins by spectrophotometry; type: functional
[17] = Antioxidant activity assessed as superoxide anion scavenging activity after 5 mins by spectrophotometry; type: functional

T1 sequence (P22985 whole entry): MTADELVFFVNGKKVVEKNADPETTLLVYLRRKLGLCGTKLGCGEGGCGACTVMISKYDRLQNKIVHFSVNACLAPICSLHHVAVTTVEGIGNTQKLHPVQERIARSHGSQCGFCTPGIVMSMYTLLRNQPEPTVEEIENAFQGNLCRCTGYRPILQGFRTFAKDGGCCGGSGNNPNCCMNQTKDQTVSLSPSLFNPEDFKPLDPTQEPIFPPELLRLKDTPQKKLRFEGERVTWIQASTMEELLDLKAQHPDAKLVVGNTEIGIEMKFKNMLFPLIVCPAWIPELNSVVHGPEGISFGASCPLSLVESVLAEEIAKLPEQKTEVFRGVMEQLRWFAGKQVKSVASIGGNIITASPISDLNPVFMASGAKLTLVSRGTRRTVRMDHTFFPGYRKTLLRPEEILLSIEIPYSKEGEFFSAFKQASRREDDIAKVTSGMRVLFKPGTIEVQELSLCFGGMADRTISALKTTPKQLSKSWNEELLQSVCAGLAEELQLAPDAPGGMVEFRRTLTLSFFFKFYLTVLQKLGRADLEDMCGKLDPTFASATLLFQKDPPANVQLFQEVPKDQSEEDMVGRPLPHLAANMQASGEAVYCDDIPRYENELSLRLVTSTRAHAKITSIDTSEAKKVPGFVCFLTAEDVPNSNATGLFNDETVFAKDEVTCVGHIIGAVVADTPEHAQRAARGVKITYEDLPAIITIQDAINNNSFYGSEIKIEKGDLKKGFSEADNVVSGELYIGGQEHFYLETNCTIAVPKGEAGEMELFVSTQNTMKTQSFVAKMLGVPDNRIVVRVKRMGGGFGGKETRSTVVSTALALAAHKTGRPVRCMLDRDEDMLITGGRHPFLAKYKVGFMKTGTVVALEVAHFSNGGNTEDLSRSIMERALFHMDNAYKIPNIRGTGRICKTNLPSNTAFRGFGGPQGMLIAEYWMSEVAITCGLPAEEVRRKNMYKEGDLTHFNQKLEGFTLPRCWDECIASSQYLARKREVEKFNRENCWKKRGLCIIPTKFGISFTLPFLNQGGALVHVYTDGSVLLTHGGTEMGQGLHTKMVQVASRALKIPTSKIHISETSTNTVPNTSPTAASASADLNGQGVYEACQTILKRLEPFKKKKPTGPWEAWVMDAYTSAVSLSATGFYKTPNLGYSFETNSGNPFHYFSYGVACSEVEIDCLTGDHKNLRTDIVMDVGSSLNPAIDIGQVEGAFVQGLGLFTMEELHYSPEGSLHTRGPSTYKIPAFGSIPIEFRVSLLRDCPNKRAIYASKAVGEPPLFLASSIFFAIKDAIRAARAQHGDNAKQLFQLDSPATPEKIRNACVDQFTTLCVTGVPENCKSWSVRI

| SMILES | Activity [2] | IC50 (Liver [3]) | inhibition (INH) [5] | inhibition [6] | EC50 [7] | Activity (PC-12 [9]) | EC50 (PC-12 [10]) | other results |
| --- | --- | --- | --- | --- | --- | --- | --- | --- |
| O=C1O[C@H]([C@@H](O)CO)C(O)=C1O | – | – | – | – | – | – | – | inhibition [1]: 12.6% |
| COc1cc(C2Oc3cc(-c4oc5cc(OCC(=O)Nc6ccc(C)cc6)cc(O)c5c(=O)c4O)ccc3OC2CO)ccc1OCC(=O)Nc1ccc(C)cc1 (racemic) | inactive | 74.1 µM | Active | – | – | – | – | Activity (PC-12 [4]): Active |
| CCOC(=O)COc1cc(O)c2c(=O)c(O)c(-c3ccc4c(c3)OC(c3ccc(OCC(=O)OCC)c(OC)c3)C(CO)O4)oc2c1 (racemic) | inactive | 36.4 µM | – | 53.5% | 116 µM | – | – | IC50 [8]: 70.8 µM; inhibition at 75 µM [5]: > 50% |
| C=CCOc1cc(O)c2c(=O)c(O)c(-c3ccc4c(c3)OC(c3ccc(OCC=C)c(OC)c3)C(CO)O4)oc2c1 (racemic) | inactive | 22.6 µM | – | 72.5% | 129 µM | 40% | 20.5 µM | – |
| C=CCOc1cc(O)c2c(=O)c(OCC=C)c(-c3ccc4c(c3)OC(c3ccc(OCC=C)c(OC)c3)C(CO)O4)oc2c1 (racemic) | inactive | 54.8 µM | – | – | – | – | – | – |
| COc1cc(C2Oc3cc(-c4oc5cc(OCC(=O)Nc6ccc(Cl)cc6)cc(O)c5c(=O)c4O)ccc3OC2CO)ccc1OCC(=O)Nc1ccc(Cl)cc1 (racemic) | inactive | 153 µM | Active | – | – | – | – | Activity (PC-12 [4]): Active |
| COc1cc(C2Oc3cc(-c4oc5cc(OCC=C(C)C)cc(O)c5c(=O)c4O)ccc3OC2CO)ccc1OCC=C(C)C (racemic) | inactive | 28.1 µM | – | – | 138 µM | 40% | 47.4 µM | inhibition at 75 µM [5]: 18.9% |
| COc1ccc(NC(=O)COc2cc(O)c3c(=O)c(O)c(-c4ccc5c(c4)OC(c4ccc(OCC(=O)Nc6ccc(OC)cc6)c(OC)c4)C(CO)O5)oc3c2)cc1 (racemic) | inactive | 37 µM | Active | – | – | – | – | Activity (PC-12 [4]): Active |
| COc1cc(C2Oc3cc(-c4oc5cc(OCC(=O)Nc6ccc(Cl)cc6Cl)cc(O)c5c(=O)c4O)ccc3OC2CO)ccc1OCC(=O)Nc1ccc(Cl)cc1Cl (racemic) | inactive | 20.7 µM | Active | – | – | – | – | Activity (PC-12 [4]): Active |
| COc1cc(C2Oc3cc(-c4oc5cc(OCC(=O)N6CCCC6)cc(O)c5c(=O)c4O)ccc3OC2CO)ccc1OCC(=O)N1CCCC1 (racemic) | inactive | 0.9 µM | Active | 87% | 23.2 µM | – | – | Ratio EC50 [11]: 7; inhibition [1]: 44.2%; Ratio IC50 (Liver [12]): 93; Ratio IC50 (Liver [13]): 11; Ratio IC50 (Liver [14]): 5; Ratio EC50 [15]: 4; Activity (PC-12 [4]): Active |
| CCN(CC)C(=O)COc1cc(O)c2c(=O)c(O)c(-c3ccc4c(c3)OC(c3ccc(OCC(=O)N(CC)CC)c(OC)c3)C(CO)O4)oc2c1 (racemic) | inactive | 5.8 µM | Active | 63% | 59.9 µM | – | – | Activity (PC-12 [4]): Active |
| CCN(CC)C(=O)COc1cc(O)c2c(=O)c(O)c(-c3ccc4c(c3)OC(c3ccc(O)c(OC)c3)C(CO)O4)oc2c1 (racemic) | Active | 0.7 µM | Active | 52.5% | 113 µM | – | – | inhibition [1]: 46.4% |
| C=CCCOc1cc(O)c2c(=O)c(O)c(-c3ccc4c(c3)OC(c3ccc(OCCC=C)c(OC)c3)C(CO)O4)oc2c1 (racemic) | inactive | 36.2 µM | – | – | 145 µM | 40% | 37.7 µM | – |
| C=CCCOc1cc(O)c2c(=O)c(OCCC=C)c(-c3ccc4c(c3)OC(c3ccc(OCCC=C)c(OC)c3)C(CO)O4)oc2c1 (racemic) | inactive | 67.5 µM | – | – | – | 40% | 79.4 µM | – |
| COc1ccc(C(=O)OCC2Oc3ccc(-c4oc5cc(O)cc(O)c5c(=O)c4O)cc3OC2c2ccc(O)c(OC)c2)cc1 (racemic) | inactive | 104 µM | – | – | – | – | – | – |
| COc1cc(C2Oc3cc(-c4oc5cc(O)cc(O)c5c(=O)c4O)ccc3OC2COC(=O)c2cccc(Cl)c2)ccc1O (racemic) | inactive | 16.9 µM | – | – | – | 40% | 46.5 µM | – |
| COc1cc(C2Oc3cc(-c4oc5cc(OCC=C(C)C)cc(O)c5c(=O)c4O)ccc3OC2CO)ccc1O (racemic) | Active | 23.3 µM | – | 51% | 137 µM | 40% | 32 µM | – |
| Oc1ncnc2[nH]ncc12 [ALLOPURINOL] | – | – | – | – | – | – | – | IC50 [8]: 21.2 µM |
| COc1cc(C2Oc3cc(-c4oc5cc(O)cc(O)c5c(=O)c4O)ccc3OC2CO)ccc1O (stereo unspecified) [DEHYDROSILYLBIN] | – | 10.7 µM | – | 58% | 118 µM | 40% | 30.2 µM | inhibition [1]: 42.2%; IC50 [8]: 80.3 µM |
| O=C([O-])CN(CCN(CC(=O)[O-])CC(=O)O)CC(=O)O.[Na+].[Na+] [EDETATE DISODIUM ANHYDROUS] | – | – | – | 91.5% | 16.4 µM | – | – | – |
| O=c1c(O)c(-c2ccc(O)c(O)c2)oc2cc(O)cc(O)c12 [QUERCETIN] | – | 4.6 µM | – | 43.5% | 188 µM | – | 58.4 µM | EC50 [16]: 3.4 µM; EC50 [17]: 38.6 µM |
| COc1cc(C2Oc3cc([C@H]4Oc5cc(O)cc(O)c5C(=O)[C@@H]4O)ccc3OC2CO)ccc1O (stereo partly specified) [SILIBININ] | – | 84.8 µM | Not Active | – | – | – | – | IC50 [8]: 80.3 µM |
